Where no end group is shown, it is not given here.
Experiments:
A1R = target: T1, A1R (Rattus norvegicus, UniProt P25099); experiment: [3H]DPCPX radioligand binding in intact cortical neurons; details: for Total A1R density (Bmax) increase over control value: 25 µM; for A1R Bmax: [3H]DPCPX saturation binding
T1 construct: endogenous in cells; host or cells: rat primary cortical neurons (intact)
T1 sequence (P25099 1-326): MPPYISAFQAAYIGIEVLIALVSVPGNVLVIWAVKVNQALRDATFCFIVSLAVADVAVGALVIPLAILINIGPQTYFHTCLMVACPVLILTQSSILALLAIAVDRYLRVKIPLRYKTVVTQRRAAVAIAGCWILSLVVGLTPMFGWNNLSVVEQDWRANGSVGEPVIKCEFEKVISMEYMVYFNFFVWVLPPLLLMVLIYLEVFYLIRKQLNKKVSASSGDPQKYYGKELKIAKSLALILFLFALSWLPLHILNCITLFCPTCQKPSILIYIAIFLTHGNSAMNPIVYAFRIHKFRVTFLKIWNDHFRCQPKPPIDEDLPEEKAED
Procedure: Concerning adenosine receptor assessment by radioligand binding, [^3H]DPCPX and [^3H]ZM241385 were employed as selective A1R and A2AR radioligands, as described previously, to determine A1R and A2AR density, respectively. Briefly, primary cortical neurons growth in 24-well plates were washed with serum-free DMEM and pre-incubated with 2 U/mL ADA at 37 °C for 30 min to remove endogenous adenosine. After incubation, the radioligands [^3H]DPCPX (1–20 nM) or [^3H] ZM241385 (1–20 nM) were added in the absence or the presence of CPA in a concentration 10^4 times higher than the radioligand, to obtain non-specific binding to A1R, or 5 mM theophylline, to obtain non-specific binding to A2AR. A specific adenosine uptake inhibitor (1 µM dipyridamole) was added to the reaction mixture to block adenosine receptor ligands’ binding to adenosine transporters. After incubation at 25 °C for 2 h in a final volume of 250 µL, cells were washed with 500 µL of ice-cold buffer and disrupted with 0.2% SDS. Well contents were then transferred to vials and a scintillation liquid mixture was added to measure radioactivity. Two wells from each plate were reserved for protein concentration measurement.

mGluR1 = experiment: Extracellular immunostaining of mGluR1 in non-permeabilized neurons; format: cell-based, rat; details: 25 µM, 24 h, whole-cell immunostaining
Procedure: The quantitative analysis of the levels of Group I mGluR and mGluR2,3 at the plasma membrane was performed with extracellular targeted polyclonal antibodies (mGluR1, mGluR5 and mGluR2,3, Alomone Labs, Jerusalem, Israel), as previously described with minor modifications. Briefly, after 2 weeks in culture, the culture medium was removed and cells washed with Locke Buffer (LB, pH 7.4). Cells were then fixed with 4% paraformaldehyde for 10 min at room temperature and washed with three 10-min intervals with LB.
Nonspecific staining was suppressed by blocking with 3% normal goat serum in LB for 60 min. […]
(§1) To evaluate the degree of fluorescence intensity in cortical neurons, fluorescence was measured to estimate the protein expression in the different experimental conditions analyzed. Images (448.6 µm × 335.08 µm) obtained with a digital camera (Leica DFC350FX R2), attached to a Leica DMI6000B (Leica Microsystems, Wetzlar, Germany) fluorescent microscope, were used for quantification (20x HCX PL FLUOTAR 0.4 dry objective). […] Fluorescence intensity was estimated by averaging mean grey values. […] Data were normalized to the total number of cells in the analyzed fields. The mean fluorescence background, calculated in the unstained regions between neurons, was subtracted from the fluorescence intensity of each data point. […]

PLCβ1 = PLCβ1 immunocytochemistry in permeabilized neurons; format: cell-based, rat; details: 25 µM, 24 h
Procedure: For PLCβ1 immunostaining, the protocol described above was followed with the introduction of modified steps. Before the nonspecific staining blockade with 3% normal goat serum, cells were pre-treated with Triton 0.25% in LB for 10 min to induce membrane permeabilization. Cells were incubated overnight in blocking buffer with mouse anti-PLCβ1 monoclonal antibody (1:500) from Millipore (Bedford, MA, USA). The following day, after three LB washes (10 min each), cortical neurons were exposed to Cy3-conjugated goat anti-mouse IgG (1:600). In all immunochemical procedures, internal controls were carried out where primary antibodies were not added to the blocking buffer.
as §1

adenylyl cyclase (AC) = experiment: Adenylyl cyclase activity, basal and forskolin-stimulated; format: cell-based, rat
Procedure: AC activity was determined as previously reported by Murphy with minor modifications. Briefly, control or treated cells were pre-incubated in serum-free DMEM buffered with 20 mM HEPES, pH 7.4, supplemented with 100 µM Ro 20-1724 and 2 U/mL ADA, for 10 min at 37 °C. AC activity was stimulated using specific ligands for 15 min at 37 °C in a final volume of 250 µL. The reaction was stopped by adding 500 µL 0.1 M HCl in absolute ethanol. Once centrifuged at 12,000× g for 10 min, supernatants were evaporated in speed-vac and resuspended in 150 µL assay buffer (50 mM Tris-HCl, 4 mM EDTA). Fifty microliters of the sample were used to determine cAMP accumulation using protein kinase A as a cAMP binding protein and [^3H]cAMP as radioligand. A cAMP standard curve (0–16 pmol) was prepared in the same buffer. Incubation was stopped by rapid filtration through Whatman GF/B filters.

[1] = neurons exposed to 25 µM for 24 h
[2] = neurons exposed to 25 µM for 48 h

GSNKGAIIGLM [Aβ25-35]
Total A1R density (Bmax) increase over control value (A1R; 24 h): 265%
Total A1R density (Bmax) increase over control value (A1R; 48 h): 184%
Kd (A1R; [1]): 7.51 ± 2.35 nM
A1R Bmax (A1R; [1]): 545 ± 101 fmol/mg prot
Kd (A1R; [2]): 5.51 ± 1.33 nM
A1R Bmax (A1R; [2]): 423 ± 66 fmol/mg prot
mGluR1 density at the membrane level, increase over control value (mGluR1): more than 7 fold
total PLCβ1 protein decrease over control value (PLCβ1): 40%
basal or forskolin-stimulated AC activity vs control neurons (adenylyl cyclase (AC); 25 µM, 24 h, 5 µM forskolin): No differences
basal AC activity (adenylyl cyclase (AC); [1]): 2.33 ± 0.55 pmol/mg/min

— PMC8234864, “Early Effects of the Soluble Amyloid β25-35 Peptide in Rat Cortical Neurons: Modulation of Signal Transduction Mediated by Adenosine and Group I Metabotropic Glutamate Receptors” (International Journal of Molecular Sciences, 2021)
